Patent US20050118188A1, “Pharmaceutical composition for immunization against AIDS” (Aventis Pasteur, S.A., priority 2000, published 2005)

Tested on: female BALB/c By J Ico mice
Settings: mouse, in vivo

CC(C)CCC[C@@H](C)[C@H]1CC[C@H]2[C@@H]3CC=C4C[C@@H](OC(=O)NCCN(C)C)CC[C@]4(C)[C@H]3CC[C@]12C.Cl [DCchol, DC-Chol hydrochloride]
Adjuvant effect on local IgA responses (in words): marked adjuvant effect | Adjuvant effect on serum anti-gp160 antibodies (in words): good adjuvant | Factor by which IgA normalized specific activities (NSA) were multiplied compared to gp160 alone: 12
